Patent US12516056B2, “Compounds for inhibition of janus kinase 1” (MANKIND PHARMA LTD., priority 2019, dated 2026)
Structures can show the parent of a compound that is named as a salt.

Assays:
[1] = target: T1, Recombinant JAK1 (Homo sapiens, UniProt P23458); assay: JAK biochemical assay (LANCE Ultra TR-FRET), JAK1; details: recombinant JAK1, TR-FRET; read-out: Biochemical Assay (μM) JAK1
T1 construct: purchased Carna Biosciences
Method in brief: (§1)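 Kinase reactions ran in buffer of 50 mM HEPES pH 7.5 with 1 mM EGTA, 10 mM MgCl2, 2 mM DTT and 0.01% Tween-20, using recombinant enzyme. Phosphorylated ULight substrate was detected by TR-FRET, and compound effect expressed as % inhibition against vehicle.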

[2] = target: T2, Recombinant JAK2 (Homo sapiens, UniProt O60674); assay: JAK biochemical assay (LANCE Ultra TR-FRET), JAK2; details: recombinant JAK2, TR-FRET; read-out: Biochemical Assay (μM) JAK2
T2 construct: purchased Carna Biosciences
T2 sequence (O60674 whole entry): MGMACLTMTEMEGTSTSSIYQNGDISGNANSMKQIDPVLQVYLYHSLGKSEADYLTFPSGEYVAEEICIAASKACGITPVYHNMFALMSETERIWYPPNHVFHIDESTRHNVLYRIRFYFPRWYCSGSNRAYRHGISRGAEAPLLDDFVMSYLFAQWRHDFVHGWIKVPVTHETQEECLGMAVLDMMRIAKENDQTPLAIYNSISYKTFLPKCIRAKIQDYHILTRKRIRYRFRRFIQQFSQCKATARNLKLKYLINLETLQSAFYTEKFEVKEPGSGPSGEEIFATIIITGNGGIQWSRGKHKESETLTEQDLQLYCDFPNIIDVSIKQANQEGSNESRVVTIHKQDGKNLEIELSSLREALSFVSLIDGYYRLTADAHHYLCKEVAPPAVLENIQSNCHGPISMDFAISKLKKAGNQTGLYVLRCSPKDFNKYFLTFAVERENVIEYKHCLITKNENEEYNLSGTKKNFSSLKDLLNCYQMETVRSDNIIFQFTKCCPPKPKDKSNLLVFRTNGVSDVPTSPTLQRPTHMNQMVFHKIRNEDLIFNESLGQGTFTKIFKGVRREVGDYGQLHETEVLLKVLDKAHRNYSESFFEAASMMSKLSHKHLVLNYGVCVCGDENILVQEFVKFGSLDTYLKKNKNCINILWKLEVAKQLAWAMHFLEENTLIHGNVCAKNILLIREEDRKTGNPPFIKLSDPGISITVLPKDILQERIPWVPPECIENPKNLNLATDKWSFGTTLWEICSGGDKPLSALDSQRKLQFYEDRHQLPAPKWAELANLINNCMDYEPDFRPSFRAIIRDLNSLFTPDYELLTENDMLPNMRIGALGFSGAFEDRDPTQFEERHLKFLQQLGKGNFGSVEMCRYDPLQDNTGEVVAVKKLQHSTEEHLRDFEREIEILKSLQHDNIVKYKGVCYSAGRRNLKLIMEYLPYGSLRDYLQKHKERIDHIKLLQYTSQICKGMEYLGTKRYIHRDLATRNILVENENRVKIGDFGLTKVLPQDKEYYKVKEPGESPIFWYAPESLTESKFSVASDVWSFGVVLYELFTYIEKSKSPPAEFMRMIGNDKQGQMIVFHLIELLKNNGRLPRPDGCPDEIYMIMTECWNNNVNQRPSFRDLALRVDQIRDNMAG
Method in brief: as §1

[3] = target: T3, Recombinant JAK3 (Homo sapiens, UniProt P52333); assay: JAK biochemical assay (LANCE Ultra TR-FRET), JAK3; details: recombinant JAK3, TR-FRET; read-out: Biochemical Assay (μM) JAK3
T3 construct: purchased Carna Biosciences
T3 sequence (P52333 1-1124): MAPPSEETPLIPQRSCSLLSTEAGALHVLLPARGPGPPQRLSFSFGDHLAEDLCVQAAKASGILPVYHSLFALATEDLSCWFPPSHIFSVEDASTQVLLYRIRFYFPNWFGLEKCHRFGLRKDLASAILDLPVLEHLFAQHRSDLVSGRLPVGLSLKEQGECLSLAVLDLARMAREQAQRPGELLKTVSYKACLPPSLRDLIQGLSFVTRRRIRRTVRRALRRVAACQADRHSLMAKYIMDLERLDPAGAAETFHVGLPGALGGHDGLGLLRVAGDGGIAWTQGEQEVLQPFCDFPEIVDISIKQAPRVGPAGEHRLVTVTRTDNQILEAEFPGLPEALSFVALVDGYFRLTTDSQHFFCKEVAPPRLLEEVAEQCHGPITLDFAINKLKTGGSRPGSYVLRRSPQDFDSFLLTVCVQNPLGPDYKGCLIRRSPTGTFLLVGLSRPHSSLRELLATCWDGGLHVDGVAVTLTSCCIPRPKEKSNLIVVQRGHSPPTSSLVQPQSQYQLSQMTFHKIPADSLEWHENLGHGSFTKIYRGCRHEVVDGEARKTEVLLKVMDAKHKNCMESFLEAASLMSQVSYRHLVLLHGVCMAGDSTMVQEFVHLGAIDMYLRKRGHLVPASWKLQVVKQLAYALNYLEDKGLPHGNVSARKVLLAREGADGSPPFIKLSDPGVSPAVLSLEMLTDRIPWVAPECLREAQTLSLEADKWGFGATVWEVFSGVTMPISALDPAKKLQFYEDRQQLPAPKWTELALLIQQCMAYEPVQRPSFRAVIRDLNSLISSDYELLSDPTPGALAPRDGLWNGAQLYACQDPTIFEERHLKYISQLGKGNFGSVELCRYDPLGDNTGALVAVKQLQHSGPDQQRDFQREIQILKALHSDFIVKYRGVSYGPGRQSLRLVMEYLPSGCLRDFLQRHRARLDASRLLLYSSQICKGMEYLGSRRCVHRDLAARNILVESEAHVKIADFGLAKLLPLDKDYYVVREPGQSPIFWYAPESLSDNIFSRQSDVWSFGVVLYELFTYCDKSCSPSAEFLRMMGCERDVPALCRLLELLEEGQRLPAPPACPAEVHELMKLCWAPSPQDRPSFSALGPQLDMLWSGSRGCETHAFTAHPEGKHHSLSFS
Method in brief: as §1

[4] = target: T4, Recombinant TYK2 (Homo sapiens, UniProt P29597); assay: JAK biochemical assay (LANCE Ultra TR-FRET), TYK2; details: recombinant TYK2, TR-FRET; read-out: Biochemical Assay (μM) TYK2
T4 construct: purchased Carna Biosciences
T4 sequence (P29597 whole entry): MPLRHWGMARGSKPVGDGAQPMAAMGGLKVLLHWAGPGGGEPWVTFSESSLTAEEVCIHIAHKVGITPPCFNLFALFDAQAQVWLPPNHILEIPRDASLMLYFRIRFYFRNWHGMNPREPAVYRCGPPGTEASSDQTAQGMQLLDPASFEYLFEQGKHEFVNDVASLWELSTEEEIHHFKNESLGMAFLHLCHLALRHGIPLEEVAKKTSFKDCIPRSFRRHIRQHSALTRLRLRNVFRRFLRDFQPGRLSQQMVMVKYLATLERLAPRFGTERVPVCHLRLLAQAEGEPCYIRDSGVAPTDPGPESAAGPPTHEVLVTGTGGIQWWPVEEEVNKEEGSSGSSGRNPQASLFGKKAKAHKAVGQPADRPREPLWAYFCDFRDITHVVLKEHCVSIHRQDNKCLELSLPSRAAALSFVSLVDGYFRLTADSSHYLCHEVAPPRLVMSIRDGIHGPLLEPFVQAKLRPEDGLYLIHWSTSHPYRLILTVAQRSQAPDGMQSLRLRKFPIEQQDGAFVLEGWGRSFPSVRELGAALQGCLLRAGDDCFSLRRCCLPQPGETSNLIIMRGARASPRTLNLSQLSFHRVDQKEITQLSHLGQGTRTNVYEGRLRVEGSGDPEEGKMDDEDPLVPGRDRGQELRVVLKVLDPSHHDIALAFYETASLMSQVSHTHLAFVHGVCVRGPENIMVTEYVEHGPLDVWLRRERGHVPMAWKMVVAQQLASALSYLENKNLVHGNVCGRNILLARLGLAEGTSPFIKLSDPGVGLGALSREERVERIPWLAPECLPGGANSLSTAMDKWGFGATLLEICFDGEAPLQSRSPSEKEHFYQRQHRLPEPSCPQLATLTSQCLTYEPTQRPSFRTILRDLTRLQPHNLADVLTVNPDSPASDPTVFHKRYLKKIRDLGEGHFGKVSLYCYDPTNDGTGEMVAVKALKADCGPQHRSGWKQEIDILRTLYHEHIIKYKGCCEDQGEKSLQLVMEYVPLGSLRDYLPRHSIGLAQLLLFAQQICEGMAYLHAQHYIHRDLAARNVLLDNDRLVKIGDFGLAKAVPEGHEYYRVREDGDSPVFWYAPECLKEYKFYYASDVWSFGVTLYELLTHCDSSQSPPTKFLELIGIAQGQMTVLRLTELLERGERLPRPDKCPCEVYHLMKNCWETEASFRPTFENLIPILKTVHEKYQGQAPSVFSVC
Method in brief: as §1

[5] = test system: STAT3 phosphorylation by IL-6 in TF-1 cells; assay: JAK cellular assay: STAT3 phosphorylation by IL-6 in TF-1 cells (HTRF); format: cell-based; details: Homo sapiens, TF-1, TF-1 cells, IL-6 30 ng/ml, pSTAT3 HTRF; read-out: Cell Based Assay (μM) TF-1/IL-6/pSTAT3
Method in brief: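 TF-1 cells starved overnight in low-serum OptiMEM, then 120,000/well in RPMI, preincubated with compound 30 min at 37 °C (0.2% DMSO final). Stimulation 20 min with IL-6 30 ng/ml (pSTAT3) or GMCSF 5 ng/ml (pSTAT5); lysate phospho-STAT by HTRF, unstimulated background subtracted.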

[6] = test system: STAT5 phosphorylation by IL-2 in HT-2 cells; assay: STAT5 phosphorylation by IL-2 in HT-2 cells (HTRF); format: cell-based; details: HT2, HT-2 cells, IL-2 50 U/ml, pSTAT5 HTRF; read-out: Cell Based Assay (μM) HT-2/IL-2/pSTAT5
Method: HT-2 cells were starved […] in RPMI phenol red with 10% fetal bovine serum for 4 hours in CO2 incubator maintained at 37° c. Compounds were diluted in DMSO and added to 96 well plate containing a final density of 1,20,000 cells per well. Cells and compounds are incubated for 30 minutes in CO2 incubator maintained at 37° C. and final DMSO concentration in cell based assay was 0.2%. Human recombinant cytokine, IL-2 (50 U/ml) was added to the plate containing cells and compound and incubated for 20 minutes with gentle tapping/shaking at every 5 minutes once. Compound mediated effects on STAT5 phosphorylation was measured in the lysates prepared by using CISBIO pSTAT5 detection kit by HTRF method. Background signal obtained from cells which were not activated with cytokines, was subtracted from vehicle controls and compound treated wells.

T1 sequence (P23458 whole entry): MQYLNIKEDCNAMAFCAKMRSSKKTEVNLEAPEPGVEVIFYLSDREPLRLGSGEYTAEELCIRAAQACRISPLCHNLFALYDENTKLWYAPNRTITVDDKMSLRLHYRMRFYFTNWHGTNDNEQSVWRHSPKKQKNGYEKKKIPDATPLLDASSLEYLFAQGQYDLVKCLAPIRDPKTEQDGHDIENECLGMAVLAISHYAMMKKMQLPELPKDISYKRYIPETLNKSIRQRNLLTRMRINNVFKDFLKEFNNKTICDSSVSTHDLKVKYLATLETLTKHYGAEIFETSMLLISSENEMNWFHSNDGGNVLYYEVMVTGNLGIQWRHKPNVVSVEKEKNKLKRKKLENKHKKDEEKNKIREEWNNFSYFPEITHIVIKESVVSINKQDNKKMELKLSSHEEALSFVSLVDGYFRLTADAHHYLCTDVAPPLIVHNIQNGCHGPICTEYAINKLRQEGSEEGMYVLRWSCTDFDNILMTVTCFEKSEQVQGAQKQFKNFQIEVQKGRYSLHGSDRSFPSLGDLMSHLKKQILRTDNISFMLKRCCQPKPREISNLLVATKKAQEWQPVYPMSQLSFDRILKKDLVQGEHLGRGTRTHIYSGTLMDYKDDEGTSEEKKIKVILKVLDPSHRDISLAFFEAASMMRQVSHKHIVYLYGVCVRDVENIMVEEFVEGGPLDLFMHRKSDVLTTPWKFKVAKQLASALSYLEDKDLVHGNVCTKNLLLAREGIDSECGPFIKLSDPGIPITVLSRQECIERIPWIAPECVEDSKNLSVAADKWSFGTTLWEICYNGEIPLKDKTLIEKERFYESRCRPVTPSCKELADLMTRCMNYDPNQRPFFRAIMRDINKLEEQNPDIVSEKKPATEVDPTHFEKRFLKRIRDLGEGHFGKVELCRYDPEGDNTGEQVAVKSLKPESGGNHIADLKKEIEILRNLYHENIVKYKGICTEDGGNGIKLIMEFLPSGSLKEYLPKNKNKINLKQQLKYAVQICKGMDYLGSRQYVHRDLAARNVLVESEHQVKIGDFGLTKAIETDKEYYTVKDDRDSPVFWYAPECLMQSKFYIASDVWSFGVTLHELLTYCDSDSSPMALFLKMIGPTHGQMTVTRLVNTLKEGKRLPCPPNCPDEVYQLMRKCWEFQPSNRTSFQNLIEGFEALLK

| SMILES | IC50 [1] [µM] | IC50 [2] [µM] | IC50 [3] [µM] | IC50 [4] [µM] | IC50 [5] [µM] | IC50 [6] [µM] |
| --- | --- | --- | --- | --- | --- | --- |
| N#CC(C(=O)NCC(F)(F)F)c1ccc(-n2cc(-c3ccnc4[nH]cnc34)cn2)nc1 (stereo not drawn) [Example 1168, 2-(6-(4-(3H-imidazo[4,5-b]pyridin-7-yl)-1H-pyrazol-1-yl)pyridin-3-yl)-2-cyano-N-(2,2,2-trifluoroethyl)acetamide] | > 0.1 | > 0.5 | > 0.1 | > 1 | > 1 | > 1 |
| CNC(=O)C[C@H](c1ccc(-n2cc(-c3ccnc4[nH]cnc34)cn2)nc1)C(F)(F)F [Example 1213, (R)-3-(6-(4-(3H-imidazo[4,5-b]pyridin-7-yl)-1H-pyrazol-1-yl)pyridin-3-yl)-4,4,4-trifluoro-N-methylbutanamide] | < 0.1 | < 0.1 | < 0.1 | > 0.5 | 0.55 | 0.7 |
| CNCC[C@@H](c1ccc(-n2cc(-c3ccnc4[nH]cnc34)cn2)nc1)C(F)(F)F [Example 1217, (S)-3-(6-(4-(3H-imidazo[4,5-b]pyridin-7-yl)-1H-pyrazol-1-yl)pyridin-3-yl)-4,4,4-trifluoro-N-methylbutan-1-amine, TFA salt] | 0.0026 | 0.007 | 0.006 | 0.08 | > 0.1 | > 0.5 |
| OC(CN1CCOCC1)(c1ccc(-n2cc(-c3ccnc4[nH]cnc34)cn2)nc1)C(F)(F)F (stereo not drawn) [Example 1229, 2-(6-(4-(3H-imidazo[4,5-b]pyridin-7-yl)-1H-pyrazol-1-yl)pyridin-3-yl)-1,1,1-trifluoro-3-morpholinopropan-2-ol] | < 0.1 | < 0.1 | < 0.1 | > 1 | > 1 | > 1 |
| OC(CCN1CCOCC1)(c1ccc(-n2cc(-c3ccnc4[nH]cnc34)cn2)nc1)C(F)(F)F (stereo not drawn) [Example 1230, 2-(6-(4-(3H-imidazo[4,5-b]pyridin-7-yl)-1H-pyrazol-1-yl)pyridin-3-yl)-1,1,1-trifluoro-4-morpholinobutan-2-ol] | < 0.1 | < 0.1 | < 0.1 | > 0.5 | > 0.5 | > 0.5 |
| CNC(=O)N1CC(C(O)(c2ccc(-n3cc(-c4ccnc5[nH]cnc45)cn3)nc2)C(F)(F)F)C1 (stereo not drawn) [Example 1246, 3-(1-(6-(4-(3H-imidazo[4,5-b]pyridin-7-yl)-1H-pyrazol-1-yl)pyridin-3-yl)-2,2,2-trifluoro-1-hydroxyethyl)-N-methylazetidine-1-carboxamide] | 0.006 | 0.034 | 0.006 | 0.79 | 1.5 | 2 |
| CC(C)N1CCC([C@](O)(c2ccc(-n3cc(-c4ccnc5[nH]cnc45)cn3)cc2)C(F)(F)F)C1 (stereo partly drawn) [Example 1251, (S)-1-(4-(4-(3H-imidazo[4,5-b]pyridin-7-yl)-1H-pyrazol-1-yl)phenyl)-2,2,2-trifluoro-1-(1-isopropylpyrrolidin-3-yl)ethanol] | < 0.1 | < 0.1 | < 0.1 | > 0.5 | 1 | > 2 |

Continued, values first:

| IC50 [1] [µM] | IC50 [2] [µM] | IC50 [3] [µM] | IC50 [4] [µM] | IC50 [5] [µM] | IC50 [6] [µM] | SMILES |
| --- | --- | --- | --- | --- | --- | --- |
| < 0.1 | < 0.1 | < 0.1 | > 1 | 1 | 3.6 | CS(=O)(=O)CCC(c1ccc(-n2cc(-c3ccnc4[nH]cnc34)cn2)cc1)C(F)(F)F (stereo not drawn) [Example 1190, 7-(1-(4-(1,1,1-trifluoro-4-(methylsulfonyl)butan-2-yl)phenyl)-1H-pyrazol-4-yl)-3H-imidazo[4,5-b]pyridine] |
| < 0.1 | < 0.1 | < 0.1 | > 1 | > 0.8 | > 0.8 | N#CCC(=O)NC(c1ccc(-n2cc(-c3ccnc4[nH]cnc34)cn2)nc1)C(F)(F)F (stereo not drawn) [Example 1192, N-(1-(6-(4-(3H-imidazo[4,5-b]pyridin-7-yl)-1H-pyrazol-1-yl)pyridin-3-yl)-2,2,2-trifluoroethyl)-2-cyanoacetamide] |
| 0.005 | 0.01 | 0.005 | > 0.5 | 0.43 | 1.08 | CC(C)NCC[C@@H](c1ccc(-n2cc(-c3ccnc4[nH]cnc34)cn2)nc1)C(F)(F)F [Example 1207, (S)-3-(6-(4-(3H-imidazo[4,5-b]pyridin-7-yl)-1H-pyrazol-1-yl)pyridin-3-yl)-4,4,4-trifluoro-N-isopropylbutan-1-amine] |
| < 0.1 | < 0.5 | < 0.1 | > 1 | > 1 | > 1 | CNC(=O)C[C@@H](c1ccc(-n2cc(-c3ccnc4[nH]cnc34)cn2)nc1)C(F)(F)F [Example 1214, (S)-3-(6-(4-(3H-imidazo[4,5-b]pyridin-7-yl)-1H-pyrazol-1-yl)pyridin-3-yl)-4,4,4-trifluoro-N-methylbutanamide] |
| < 0.1 | < 0.1 | < 0.1 | > 0.5 | 0.28 | 0.51 | O=S(=O)(CC[C@@H](c1ccc(-n2cc(-c3ccnc4[nH]cnc34)cn2)nc1)C(F)(F)F)C1CC1 [Example 1216, 7-(1-(5-((S)-4-(cyclopropylsulfonyl)-1,1,1-trifluorobutan-2-yl)pyridin-2-yl)-1H-pyrazol-4-yl)-3H-imidazo[4,5-b]pyridine] |
| < 0.1 | < 0.1 | < 0.1 | > 0.5 | > 0.75 | > 0.8 | N#CCC(=O)NCCC(c1ccc(-n2cc(-c3ccnc4[nH]cnc34)cn2)nc1)C(F)(F)F (stereo not drawn) [Example 1248, N-(3-(6-(4-(3H-imidazo[4,5-b]pyridin-7-yl)-1H-pyrazol-1-yl)pyridin-3-yl)-4,4,4-trifluorobutyl)-2-cyanoacetamide] |
| < 0.1 | < 0.1 | < 0.1 | > 1 | > 1 | > 1 | N#CC1CN(C(=O)CCC(c2ccc(-n3cc(-c4ccnc5[nH]cnc45)cn3)nc2)C(F)(F)F)C1 (stereo not drawn) [Example 1250, 1-(4-(6-(4-(3H-imidazo[4,5-b]pyridin-7-yl)-1H-pyrazol-1-yl)pyridin-3-yl)-5,5,5-trifluoropentanoyl)azetidine-3-carbonitrile] |
| < 0.1 | < 0.1 | < 0.1 | > 0.5 | 1.1 | 1.63 | CC(C)N1CCC([C@@](O)(c2ccc(-n3cc(-c4ccnc5[nH]cnc45)cn3)cc2)C(F)(F)F)C1 (stereo partly drawn) [Example 1252, (R)-1-(4-(4-(3H-imidazo[4,5-b]pyridin-7-yl)-1H-pyrazol-1-yl)phenyl)-2,2,2-trifluoro-1-(1-isopropylpyrrolidin-3-yl)ethanol] |
